Patent US6525001B1, “Substituted pyrimidine and pyridine herbicides” (Mid-American Commercialization Corporation, priority 1997, dated 2003)

What was measured:
Test in all cases: Test B pre-/postemergence
Format in all cases: in vivo
Parameters in all cases: key: 0 is no effect; 10 is complete control
[1] = tested on: rape (Brassica napus)
Summary of the method: (§1)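 Compounds in a surfactant-containing, non-phytotoxic solvent blend are applied to freshly planted seed (preemergence) and, concurrently, to seedlings of 2 to 18 cm at 1–4 leaves (postemergence). Plants stay in the greenhouse twelve to sixteen days and are then scored visually from 0 (no effect) to 10 (complete control).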

[2] = tested on: purple nutsedge (Cyperus rotundus)
Summary of the method: as §1

[3] = tested on: velvetleaf (Abutilon theophrasti)
Summary of the method: as §1

[4] = tested on: crabgrass (Digitaria sanguinalis)
Summary of the method: as §1

[5] = tested on: momingglory (Ipomoea hederacea)
Summary of the method: as §1

[6] = tested on: soybean (Glycine max)
Summary of the method: as §1

[7] = tested on: cocklebur (Xanthium strumarium)
Summary of the method: as §1

[8] = tested on: bedstraw (Galium aparine)
Summary of the method: as §1

[9] = tested on: pigweed (Amaranthus retroflexus)
Summary of the method: as §1

[10] = tested on: corn (Zea mays)
Summary of the method: as §1

[11] = tested on: wheat (Triticum aestivum)
Summary of the method: as §1

[12] = tested on: giant foxtail (Setaria faberii)
Summary of the method: as §1

[13] = tested on: broadleaf signalgrass (Brachiaria decumbens)
Summary of the method: as §1

[14] = tested on: sugar beet (Beta vulgaris)
Summary of the method: as §1

Cc1cnc(-c2ccc(C(F)(F)F)cc2)nc1Cn1cc(I)cn1 [Compound 12]
0: Rape plant response rating ([1]; Rate 62 g/ha, Preemergence) | Plant response rating, Nutsedge ([2]; Rate 62 g/ha, Postemergence) | Nutsedge plant response rating ([2]; Rate 62 g/ha, Preemergence) | Plant response rating, Nutsedge ([2]; Rate 125 g/ha, Postemergence) | Nutsedge plant response rating ([2]; Rate 125 g/ha, Preemergence) | Plant response rating, Nutsedge ([2]; Rate 250 g/ha, Postemergence) | Plant response rating, Nutsedge ([2]; Rate 250 g/ha, Preemergence) | Plant response rating, Nutsedge ([2]; Rate 500 g/ha, Postemergence) | Plant response rating, Nutsedge ([2]; Rate 500 g/ha, Preemergence) | Soybean plant response rating ([6]; Rate 62 g/ha, Preemergence) | Cocklebur plant response rating ([7]; Rate 62 g/ha, Preemergence) | Corn plant response rating ([10]; Rate 62 g/ha, Preemergence) | Corn plant response rating ([10]; Rate 125 g/ha, Preemergence) | Plant response rating, Corn ([10]; Rate 250 g/ha, Preemergence) | Wheat plant response rating ([11]; Rate 62 g/ha, Preemergence) | Wheat plant response rating ([11]; Rate 125 g/ha, Preemergence) | Plant response rating, Wheat ([11]; Rate 250 g/ha, Preemergence) | Plant response rating, Wheat ([11]; Rate 500 g/ha, Preemergence)
2: Plant response rating, Crabgrass ([4]; Rate 62 g/ha, Postemergence) | Soybean plant response rating ([6]; Rate 125 g/ha, Preemergence) | Plant response rating, Cocklebur ([7]; Rate 250 g/ha, Preemergence) | Bedstraw plant response rating ([8]; Rate 62 g/ha, Preemergence) | Plant response rating, Corn ([10]; Rate 62 g/ha, Postemergence) | Plant response rating, Corn ([10]; Rate 125 g/ha, Postemergence) | Plant response rating, Corn ([10]; Rate 500 g/ha, Preemergence) | Plant response rating, Giant foxtail ([12]; Rate 62 g/ha, Postemergence)
5: Rape plant response rating ([1]; Rate 125 g/ha, Preemergence) | Plant response rating, Soybean ([6]; Rate 125 g/ha, Postemergence) | Plant response rating, Soybean ([6]; Rate 250 g/ha, Postemergence) | Plant response rating, Soybean ([6]; Rate 500 g/ha, Postemergence) | Giant foxtail plant response rating ([12]; Rate 62 g/ha, Preemergence) | Plant response rating, B. signalgrass ([13]; Rate 125 g/ha, Postemergence)
3: Velvetleaf plant response rating ([3]; Rate 62 g/ha, Preemergence) | Plant response rating, Crabgrass ([4]; Rate 125 g/ha, Postemergence) | Plant response rating, Crabgrass ([4]; Rate 250 g/ha, Postemergence) | Plant response rating, Crabgrass ([4]; Rate 500 g/ha, Postemergence) | Plant response rating, Soybean ([6]; Rate 62 g/ha, Postemergence) | Plant response rating, Soybean ([6]; Rate 250 g/ha, Preemergence) | Plant response rating, Soybean ([6]; Rate 500 g/ha, Preemergence) | Plant response rating, Cocklebur ([7]; Rate 500 g/ha, Preemergence) | Plant response rating, Corn ([10]; Rate 250 g/ha, Postemergence) | Plant response rating, Corn ([10]; Rate 500 g/ha, Postemergence) | Plant response rating, Wheat ([11]; Rate 62 g/ha, Postemergence) | Plant response rating, Wheat ([11]; Rate 125 g/ha, Postemergence) | Plant response rating, Wheat ([11]; Rate 250 g/ha, Postemergence) | Plant response rating, Giant foxtail ([12]; Rate 125 g/ha, Postemergence) | Plant response rating, Giant foxtail ([12]; Rate 250 g/ha, Postemergence) | B. signalgrass plant response rating ([13]; Rate 62 g/ha, Preemergence)
8: Plant response rating, Velvetleaf ([3]; Rate 250 g/ha, Postemergence) | Plant response rating, Velvetleaf ([3]; Rate 500 g/ha, Postemergence) | Plant response rating, Crabgrass ([4]; Rate 250 g/ha, Preemergence) | Plant response rating, Cocklebur ([7]; Rate 125 g/ha, Postemergence) | Plant response rating, Cocklebur ([7]; Rate 250 g/ha, Postemergence) | Plant response rating, Cocklebur ([7]; Rate 500 g/ha, Postemergence) | Plant response rating, Bedstraw ([8]; Rate 500 g/ha, Preemergence) | B. signalgrass plant response rating ([13]; Rate 125 g/ha, Preemergence) | Plant response rating, B. signalgrass ([13]; Rate 250 g/ha, Preemergence) | Plant response rating, Sugarbeets ([14]; Rate 125 g/ha, Postemergence) | Sugarbeets plant response rating ([14]; Rate 125 g/ha, Preemergence) | Plant response rating, Sugarbeets ([14]; Rate 250 g/ha, Postemergence)
6: Plant response rating, Rape ([1]; Rate 250 g/ha, Preemergence) | Plant response rating, Rape ([1]; Rate 500 g/ha, Preemergence) | Morningglory plant response rating ([5]; Rate 125 g/ha, Preemergence) | Sugarbeets plant response rating ([14]; Rate 62 g/ha, Preemergence)
10: Plant response rating, Crabgrass ([4]; Rate 500 g/ha, Preemergence) | Plant response rating, Morningglory ([5]; Rate 250 g/ha, Preemergence) | Plant response rating, Morningglory ([5]; Rate 500 g/ha, Preemergence) | Plant response rating, Bedstraw ([8]; Rate 250 g/ha, Postemergence) | Plant response rating, Bedstraw ([8]; Rate 500 g/ha, Postemergence) | Plant response rating, Sugarbeets ([14]; Rate 250 g/ha, Preemergence) | Plant response rating, Sugarbeets ([14]; Rate 500 g/ha, Preemergence)
4: Velvetleaf plant response rating ([3]; Rate 125 g/ha, Preemergence) | Plant response rating, Velvetleaf ([3]; Rate 250 g/ha, Preemergence) | Plant response rating, Velvetleaf ([3]; Rate 500 g/ha, Preemergence) | Crabgrass plant response rating ([4]; Rate 62 g/ha, Preemergence) | Crabgrass plant response rating ([4]; Rate 125 g/ha, Preemergence) | Morningglory plant response rating ([5]; Rate 62 g/ha, Preemergence) | Bedstraw plant response rating ([8]; Rate 125 g/ha, Preemergence) | Plant response rating, Bedstraw ([8]; Rate 250 g/ha, Preemergence) | Plant response rating, Wheat ([11]; Rate 500 g/ha, Postemergence) | Plant response rating, Giant foxtail ([12]; Rate 500 g/ha, Postemergence) | Plant response rating, B. signalgrass ([13]; Rate 62 g/ha, Postemergence)
7: Plant response rating, Rape ([1]; Rate 62 g/ha, Postemergence) | Plant response rating, Velvetleaf ([3]; Rate 62 g/ha, Postemergence) | Plant response rating, Velvetleaf ([3]; Rate 125 g/ha, Postemergence) | Plant response rating, Bedstraw ([8]; Rate 62 g/ha, Postemergence) | Redroot pigweed plant response rating ([9]; Rate 62 g/ha, Preemergence) | Giant foxtail plant response rating ([12]; Rate 125 g/ha, Preemergence) | Plant response rating, B. signalgrass ([13]; Rate 250 g/ha, Postemergence) | Plant response rating, B. signalgrass ([13]; Rate 500 g/ha, Postemergence) | Plant response rating, Sugarbeets ([14]; Rate 62 g/ha, Postemergence)
9: Plant response rating, Rape ([1]; Rate 125 g/ha, Postemergence) | Plant response rating, Rape ([1]; Rate 250 g/ha, Postemergence) | Plant response rating, Rape ([1]; Rate 500 g/ha, Postemergence) | Plant response rating, Morningglory ([5]; Rate 62 g/ha, Postemergence) | Plant response rating, Morningglory ([5]; Rate 125 g/ha, Postemergence) | Plant response rating, Morningglory ([5]; Rate 250 g/ha, Postemergence) | Plant response rating, Morningglory ([5]; Rate 500 g/ha, Postemergence) | Plant response rating, Bedstraw ([8]; Rate 125 g/ha, Postemergence) | Plant response rating, Redroot pigweed ([9]; Rate 62 g/ha, Postemergence) | Plant response rating, Redroot pigweed ([9]; Rate 125 g/ha, Postemergence) | Redroot pigweed plant response rating ([9]; Rate 125 g/ha, Preemergence) | Plant response rating, Redroot pigweed ([9]; Rate 250 g/ha, Postemergence) | Plant response rating, Redroot pigweed ([9]; Rate 250 g/ha, Preemergence) | Plant response rating, Redroot pigweed ([9]; Rate 500 g/ha, Postemergence) | Plant response rating, Redroot pigweed ([9]; Rate 500 g/ha, Preemergence) | Plant response rating, Giant foxtail ([12]; Rate 250 g/ha, Preemergence) | Plant response rating, Giant foxtail ([12]; Rate 500 g/ha, Preemergence) | Plant response rating, B. signalgrass ([13]; Rate 500 g/ha, Preemergence) | Plant response rating, Sugarbeets ([14]; Rate 500 g/ha, Postemergence)
